pIC50: −log10 of the molar value.

In general, pIC50 refers to the negative decadic logarithm of the IC50, by convention in mol/L.

The experiment addresses Nav1.7 (Homo sapiens, UniProt Q15858). In words: EFS-FRET assay. The experiment is classed as cell-based. More on the design: expressed in transfected cells; host or cells: CHO (Chinese hamster ovary) cells. The settings on record: CHO cells expressing human Nav1.7 channels, read-out: IC50 against Nav1.7. The method, then: This screen is used to determine the effects of compounds on human Nav1.7 channels, utilizing electrical field stimulation (EFS) system in 96-well plate format on FDSS (Hamamatsu Photonics) platform. The changes of membrane potential are monitored with FRET dye pair, DiSBAC2(3) and PTS18.
CHO (Chinese hamster ovary) cells expressing human Nav1.7 channels are grown in T225 flasks, in a 5% CO2 humidified incubator to about 80% confluence. Media composition consists of HAM/F12 with Glutamax I, 10% FCS, 100 units/mF penicillin and 100 microgram/mF hygromycin.
• Seed each cell lines (1×10^5 cells/well) into 96-well plates prior to experimentation. • Incubate at 37° C. in 5% CO2 for 24 hours. • Wash each well with assay buffer (140 mM NaCl, 4.5 mM KCl, 10 mM D-Glucose, 2 mM CaCl2, 1 mM MgCl2, 10 mM HEPES, pH 7.4 adjusted with NaOH) twice. • Add 1st loading solution containing 10 microM PTS18 and 0.06% Pluronic F-127 in assay buffer. • Incubate the plate at rt in dark for 1 hour. • Remove 1st loading solution and add 2nd loading solution containing 12.5 microM DiSBAC2(3), 1.25 mM Xylene Fast Yellow and 0.0075% Pluronic F-127 in assay buffer. • Place the plate under the dark at rt for 25 minutes. • Add compound solutions into the assay plate. • Set the assay plate in FDSS and place an EFS device on the plate. • Measure EFS-induced fluorescent response by FDSS.
The data are analyzed and reported as normalized ratios of intensities measured at […]. The process of calculating these ratios is performed as follows:
This analysis is performed using a computerized specific program designed for FDSS generated data. Fluorescence ratio values are plotted using XLfit to determine an IC50 value for each compound.

Nav1.7, sequence (Q15858 whole entry): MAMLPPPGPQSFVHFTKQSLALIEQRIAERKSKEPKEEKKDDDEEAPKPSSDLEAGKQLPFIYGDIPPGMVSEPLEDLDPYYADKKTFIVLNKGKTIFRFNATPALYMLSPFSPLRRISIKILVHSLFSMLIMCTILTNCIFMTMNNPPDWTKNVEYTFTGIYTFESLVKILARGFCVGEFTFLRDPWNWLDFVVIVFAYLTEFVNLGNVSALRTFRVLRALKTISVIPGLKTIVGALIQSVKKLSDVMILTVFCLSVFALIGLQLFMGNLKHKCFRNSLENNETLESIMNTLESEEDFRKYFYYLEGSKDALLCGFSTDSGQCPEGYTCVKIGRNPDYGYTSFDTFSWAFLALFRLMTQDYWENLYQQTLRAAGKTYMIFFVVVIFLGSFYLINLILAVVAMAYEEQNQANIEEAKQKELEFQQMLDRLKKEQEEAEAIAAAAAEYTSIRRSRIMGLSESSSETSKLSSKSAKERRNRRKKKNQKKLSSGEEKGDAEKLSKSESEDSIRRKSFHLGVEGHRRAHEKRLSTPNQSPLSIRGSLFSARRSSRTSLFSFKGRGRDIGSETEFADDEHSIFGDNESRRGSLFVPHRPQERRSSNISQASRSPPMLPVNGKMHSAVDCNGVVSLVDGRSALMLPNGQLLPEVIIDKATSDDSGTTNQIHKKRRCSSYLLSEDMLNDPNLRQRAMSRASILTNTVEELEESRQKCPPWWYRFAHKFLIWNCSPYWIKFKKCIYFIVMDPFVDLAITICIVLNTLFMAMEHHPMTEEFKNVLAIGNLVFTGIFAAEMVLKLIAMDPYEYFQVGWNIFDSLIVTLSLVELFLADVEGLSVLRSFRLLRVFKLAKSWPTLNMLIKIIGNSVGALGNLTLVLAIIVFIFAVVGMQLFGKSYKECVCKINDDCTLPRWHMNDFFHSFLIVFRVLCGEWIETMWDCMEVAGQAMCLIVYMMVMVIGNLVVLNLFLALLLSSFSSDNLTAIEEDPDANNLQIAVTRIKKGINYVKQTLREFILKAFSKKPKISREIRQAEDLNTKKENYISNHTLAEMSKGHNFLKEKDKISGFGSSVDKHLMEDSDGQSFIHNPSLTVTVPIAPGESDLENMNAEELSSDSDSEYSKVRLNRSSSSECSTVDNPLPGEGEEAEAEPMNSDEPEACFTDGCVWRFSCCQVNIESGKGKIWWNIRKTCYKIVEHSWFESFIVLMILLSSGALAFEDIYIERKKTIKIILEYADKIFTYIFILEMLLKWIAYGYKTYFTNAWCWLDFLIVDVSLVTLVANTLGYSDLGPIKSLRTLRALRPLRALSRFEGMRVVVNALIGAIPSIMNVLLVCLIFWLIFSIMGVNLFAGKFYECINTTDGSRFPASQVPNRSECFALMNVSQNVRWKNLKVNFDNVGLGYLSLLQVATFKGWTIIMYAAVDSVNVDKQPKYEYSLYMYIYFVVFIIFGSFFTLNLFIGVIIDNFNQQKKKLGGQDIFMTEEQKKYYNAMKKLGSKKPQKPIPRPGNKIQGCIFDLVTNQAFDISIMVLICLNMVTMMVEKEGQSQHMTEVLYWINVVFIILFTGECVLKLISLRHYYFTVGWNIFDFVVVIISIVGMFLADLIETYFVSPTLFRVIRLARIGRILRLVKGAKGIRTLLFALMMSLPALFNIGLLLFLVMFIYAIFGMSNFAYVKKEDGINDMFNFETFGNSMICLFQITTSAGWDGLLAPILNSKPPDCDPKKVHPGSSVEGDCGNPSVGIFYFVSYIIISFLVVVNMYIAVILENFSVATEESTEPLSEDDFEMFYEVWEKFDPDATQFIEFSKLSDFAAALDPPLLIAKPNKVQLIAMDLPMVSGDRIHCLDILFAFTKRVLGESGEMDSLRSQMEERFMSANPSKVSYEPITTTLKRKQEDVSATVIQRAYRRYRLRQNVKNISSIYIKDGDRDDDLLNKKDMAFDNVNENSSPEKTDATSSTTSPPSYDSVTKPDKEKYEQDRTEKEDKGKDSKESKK

On to `CC(=O)Nc1cc(C(=O)N[C@@H]2CCN(c3ncc(C(F)(F)F)cc3Cl)C2)ccn1` [Example 2], for which the pIC50 was > 6.30.

`CC(=O)Nc1cc(C(=O)N[C@@H]2CCCN(c3ncc(C(F)(F)F)cc3Cl)C2)ccn1` [Example 5]: the pIC50 was > 6.30.

In the case of `CCC(=O)Nc1cc(C(=O)N[C@@H]2CCCN(c3ncc(C(F)(F)F)cc3Cl)C2)ccn1` [Example 6], the negative-log IC50 (pIC50) was > 6.30.

Consider `CC(=O)Nc1cc(C(=O)NC2CN(c3ncc(C(F)(F)F)cc3Cl)C2)ccn1` [Example 8], for which the pIC50 was > 6.30.

As to `CC(C)C(=O)Nc1cc(C(=O)N[C@@H]2CCN(c3ncc(C(F)(F)F)cc3Cl)C2)ccn1` [Example 10], the pIC50 is > 6.30.

Turning to `CCC(=O)Nc1cc(C(=O)N[C@@H]2CCN(c3ncc(C(F)(F)F)cc3Cl)C2)cc(C)n1` [Example 11], the negative-log IC50 (pIC50) was > 6.30.

Take `CCC(=O)Nc1cc(C(=O)N[C@@H]2CCN(c3ccc(C(F)(F)F)cn3)C2)ccn1` [Example 16]: the pIC50 is > 6.30.

On to `CCC(=O)Nc1nccc(C(=O)N[C@@H]2CCN(c3ncc(C(F)(F)F)cc3Cl)C2)n1` [Example 20], for which the pIC50 is > 6.30.

`O=C(N[C@@H]1CCN(c2ncc(C(F)(F)F)cc2Cl)C1)c1ccnc(NC(=O)C2CC2)n1` [Example 21]: the pIC50 was > 6.30.

`CC(C)C(=O)Nc1nccc(C(=O)N[C@@H]2CCN(c3ncc(C(F)(F)F)cc3Cl)C2)n1` [Example 22]: the negative-log IC50 (pIC50) was > 6.30.

As for `O=C(N[C@@H]1CCN(c2ncc(C(F)(F)F)cc2Cl)C1)c1ccnc(NC(=O)C2CCC2)n1` [Example 23], the pIC50 was > 6.30.

For `CC(=O)Nc1nccc(C(=O)N[C@@H]2CCCN(c3ncc(C(F)(F)F)cc3Cl)C2)n1` [Example 24], the pIC50 was > 6.30.

For `CCC(=O)Nc1nccc(C(=O)N[C@@H]2CCCN(c3ncc(C(F)(F)F)cc3Cl)C2)n1` [Example 25], the pIC50 is > 6.30.

Consider `O=C(N[C@@H]1CCCN(c2ncc(C(F)(F)F)cc2Cl)C1)c1ccnc(NC(=O)C2CC2)n1` [Example 26], for which the pIC50 was > 6.30.

Take `CC(C)C(=O)Nc1nccc(C(=O)N[C@@H]2CCCN(c3ncc(C(F)(F)F)cc3Cl)C2)n1` [Example 27]: the pIC50 was > 6.30.

As for `O=C(N[C@@H]1CCCN(c2ncc(C(F)(F)F)cc2Cl)C1)c1ccnc(NC(=O)C2CCC2)n1` [Example 28], the pIC50 was > 6.30.

`COc1cc(C(F)(F)F)cnc1N1CC[C@@H](NC(=O)c2ccnc(NC(C)=O)c2)C1` [Example 37]: the pIC50 was > 6.30.

With `CCC(=O)Nc1cc(C(=O)N[C@@H]2CCN(c3ncc(C(F)(F)F)cc3OC)C2)ccn1` [Example 38], the pIC50 is > 6.30.

In the case of `COc1cc(C(F)(F)F)cnc1N1CC[C@@H](NC(=O)c2cc(C)nc(NC(C)=O)c2)C1` [Example 39], the pIC50 is > 6.30.

For the compound `CC(=O)Nc1cc(C(=O)NC2CCC(C)N(c3ncc(C(F)(F)F)cc3Cl)C2)ccn1` (centres unmarked) [Example 41], the pIC50 is > 6.30.

For `CCC(=O)Nc1cc(C(=O)NC2CCC(C)N(c3ncc(C(F)(F)F)cc3Cl)C2)ccn1` (centres unmarked) [Example 42], the pIC50 is > 6.30.

`CC(=O)Nc1cc(C(=O)N[C@@H]2CCN(c3ncc(C(F)(F)F)cc3C)C2)ccn1` [Example 46]: the pIC50 is > 6.30.

As to `Cc1cc(C(F)(F)F)cnc1N1CC[C@@H](NC(=O)c2ccnc(NC(=O)C3CC3)c2)C1` [Example 47], the pIC50 was > 6.30.

As for `CCC(=O)Nc1cc(C(=O)N[C@@H]2CCN(c3ncc(C(F)(F)F)cc3Cl)C2)ccn1` [Example 48], the pIC50 was > 6.30.

Turning to `CC(=O)Nc1cc(C(=O)N[C@@H]2CCN(c3ncc(C(F)(F)F)cc3Cl)C2)cc(C)n1` [Example 49], the negative logarithm of the IC50 (pIC50) was > 6.30.

`CC(C)C(=O)Nc1cc(C(=O)NC2CN(c3ncc(C(F)(F)F)cc3Cl)C2)ccn1` [Example 50]: the pIC50 is > 6.30.

`CC(=O)Nc1cc(C(=O)NC2CN(c3ncc(C(F)(F)F)cc3Cl)C2)cc(C)n1` [Example 51]: the pIC50 was > 6.30.

Consider `Cc1cc(C(=O)NC2CN(c3ncc(C(F)(F)F)cc3Cl)C2)cc(NC(=O)C(C)C)n1` [Example 52], for which the pIC50 is > 6.30.

For the compound `Cc1cc(C(=O)NC2CN(c3ncc(C(F)(F)F)cc3Cl)C2)nc(NC(=O)C2CC2)n1` [Example 53], the pIC50 is > 6.30.

With `O=C(N[C@@H]1CCCN(c2ccc(C(F)(F)F)cc2Cl)C1)c1ccnc(NC(=O)C2CC2)c1` [Example 55], the pIC50 is > 6.30.

Consider `Cc1cc(C(=O)N[C@@H]2CCCN(c3ccc(C(F)(F)F)cc3Cl)C2)cc(NC(=O)C2CC2)n1` [Example 56], for which the pIC50 was > 6.30.

As for `CC(C)C(=O)Nc1cc(C(=O)N[C@@H]2CCCN(c3ccc(C(F)(F)F)cc3Cl)C2)ccn1` [Example 57], the negative logarithm of the IC50 (pIC50) was > 6.30.

With `Cc1cc(C(=O)N[C@@H]2CCCN(c3ccc(C(F)(F)F)cc3Cl)C2)cc(NC(=O)C(C)C)n1` [Example 58], the pIC50 was > 6.30.

As for `O=C(N[C@@H]1CCCN(c2ncc(C(F)(F)F)cc2Br)C1)c1ccnc(NC(=O)C2CC2)c1` [Example 59], the negative-log IC50 (pIC50) was > 6.30.

On to `Cc1cc(C(=O)N[C@@H]2CCCN(c3ncc(C(F)(F)F)cc3Br)C2)cc(NC(=O)C2CC2)n1` [Example 60], for which the pIC50 is > 6.30.

Turning to `Cc1cc(C(=O)N[C@@H]2CCCN(c3ncc(C(F)(F)F)cc3C)C2)cc(NC(=O)C(C)C)n1` [Example 73], the pIC50 was > 6.30.

`O=C(N[C@@H]1CCN(c2ccc(C(F)(F)F)cc2Cl)C1)c1ccnc(NC(=O)C2CC2)c1` [Example 77]: the pIC50 is > 6.30.

With `Cc1cc(C(=O)N[C@@H]2CCN(c3ncc(C(F)(F)F)cc3Cl)C2)cc(NC(=O)C2CC2)n1` [Example 78], the pIC50 is > 6.30.

For the compound `CC(C)C(=O)Nc1cc(C(=O)N[C@@H]2CCN(c3ccc(C(F)(F)F)cc3Cl)C2)ccn1` [Example 79], the pIC50 is > 6.30.

Consider `Cc1cc(C(=O)N[C@@H]2CCN(c3ccc(C(F)(F)F)cc3Cl)C2)cc(NC(=O)C(C)C)n1` [Example 80], for which the negative-log IC50 (pIC50) was > 6.30.

`COc1cc(C(F)(F)F)cnc1N1CC[C@@H](NC(=O)c2ccnc(NC(=O)C3CC3)c2)C1` [Example 81]: the pIC50 was > 6.30.

On to `COc1cc(C(F)(F)F)cnc1N1CC[C@@H](NC(=O)c2cc(C)nc(NC(=O)C3CC3)c2)C1` [Example 82], for which the negative logarithm of the IC50 (pIC50) was > 6.30.

Consider `COc1cc(C(F)(F)F)cnc1N1CC[C@@H](NC(=O)c2ccnc(NC(=O)C(C)C)c2)C1` [Example 83], for which the pIC50 was > 6.30.

Consider `COc1cc(C(F)(F)F)cnc1N1CC[C@@H](NC(=O)c2cc(C)nc(NC(=O)C(C)C)c2)C1` [Example 84], for which the pIC50 was > 6.30.

Regarding `CCCC(=O)Nc1cc(C(=O)N[C@@H]2CCN(c3ncc(C(F)(F)F)cc3OC)C2)ccn1` [Example 88], the pIC50 is > 6.30.

`O=C(N[C@@H]1CCCN(c2ncc(OCC(F)(F)F)cc2Cl)C1)c1ccnc(NC(=O)C2CC2)c1` [Example 92]: the negative-log IC50 (pIC50) was > 6.30.

For the compound `O=C(N[C@@H]1CCN(c2ncc(OCC(F)(F)F)cc2Cl)C1)c1ccnc(NC(=O)C2CC2)c1` [Example 93], the negative-log IC50 (pIC50) was > 6.30.

Turning to `CCC(=O)Nc1cc(C(=O)N[C@@H]2CCCN(c3ncc(OCC(F)(F)F)cc3Cl)C2)ccn1` [Example 95], the pIC50 was > 6.30.

Turning to `CCC(=O)Nc1cc(C(=O)N[C@@H]2CCN(c3ncc(OCC(F)(F)F)cc3Cl)C2)ccn1` [Example 96], the pIC50 is > 6.30.

Consider `O=C(N[C@@H]1CCCN(c2ncc(OCc3ccc(F)cc3)cc2Cl)C1)c1ccnc(NC(=O)C2CC2)c1` [Example 99], for which the pIC50 was > 6.30.

On to `Cc1cc(C(=O)N[C@@H]2CCN(c3ncc(C(F)(F)F)cc3Cl)C2)cc(NC(=O)C(C)C)n1` [Example 104], for which the pIC50 was > 6.30.

As to `CCC(=O)Nc1cc(C(=O)N[C@H]2CN(c3ncc(C(F)(F)F)cc3Cl)CC23CC3)cc(C)n1` [Example 107], the pIC50 was > 6.30.

Consider `CC(C)C(=O)Nc1cc(C(=O)N[C@H]2CN(c3ncc(C(F)(F)F)cc3Cl)CC23CC3)ccn1` [Example 109], for which the pIC50 is > 6.30.

For the compound `Cc1cc(C(=O)N[C@@H]2CCCN(c3ncc(C(F)(F)F)cc3Cl)C2)nc(NC(=O)C2CC2)n1` [Example 114], the pIC50 is > 6.30.

`CCC(=O)Nc1cc(C(=O)N[C@H]2CN(c3ncc(C(F)(F)F)cc3Cl)CC23CC3)ccn1` [Example 116]: the pIC50 was > 6.30.

For `CC(=O)Nc1cc(C(=O)N[C@H]2CN(c3ncc(C(F)(F)F)cc3Cl)CC23CC3)cc(C)n1` [Example 117], the pIC50 is > 6.30.

With `Cc1cc(C(=O)N[C@H]2CN(c3ncc(C(F)(F)F)cc3Cl)CC23CC3)cc(NC(=O)C(C)C)n1` [Example 118], the pIC50 is > 6.30.

As to `O=C(N[C@H]1CN(c2ncc(C(F)(F)F)cc2Cl)CC12CC2)c1ccnc(NC(=O)C2CC2)n1` [Example 119], the pIC50 is > 6.30.

`CC(=O)Nc1cc(C(=O)N[C@@H]2CCN(c3ccc(C(F)(F)F)cc3)C2)ccn1` [Example 120]: the pIC50 was > 6.30.
